Assay [1] has as its system CD37-positive human chronic lymphocytic leukemia cell line JVM-13. Put plainly: Cell growth inhibition by combination with BTK inhibitors (Celltiter-Glo 2.0). In kind it is cell-based. The note with it: JVM13, 144 h, read-out: D2 (50% cell growth inhibition concentration, BTK inhibitor alone). On the procedure:
(§1) During the culture period, the cells were cultured under conditions of 37°C and 5% CO2 in all the cases. The cells thus cultured for 6 days were reacted using Celltiter-Glo 2.0 Cell Viability Assay (Promega Corp,) in accordance with the attached manual, followed by the measurement of the amount of luminescence from each well using a plate reader (Envision 2105 XCite multimode plate reader, PerkinElmer, Inc.). […] Cell growth inhibition rate (%) = (T/C) × 100 [formula]
(§2) From the calculated 50% cell growth inhibition concentrations (anti-CD37 antibody-drug conjugate (1) alone: D1, each BTK inhibitor alone: D2, anti-CD37 antibody-drug conjugate (1) in the combination: d1, each BTK inhibitor drug in the combination: d2), a combination index (CI) was calculated according to the following formula, and assessed as a synergistic effect with CI < 1, an additive effect with CI = 1, and an antagonizing effect with CI > 1 (see Adv. Enzyme Regul. 1984, P. 2227-55) . CI = (d1/D1) + (d2/D2) [formula]
A general note: Cellular ATP, detected with luciferase, serves as a proxy for viable cell number.

For assay [2], the system named is CD37-positive human chronic lymphocytic leukemia cell line JVM-2. The assay is described as above. The settings on record: read-out: D2 (50% cell growth inhibition concentration, BTK inhibitor alone). The format is cell-based. How it is done:
as §1, §2

In assay [3] the test system is CD37-positive human chronic lymphocytic leukemia cell line JVM-3. The assay is described as above. The format is cell-based. The settings on record: read-out: D2 (50% cell growth inhibition concentration, BTK inhibitor alone). On the procedure: as §1, §2
In assay [4] the test system is CD37-positive human chronic lymphocytic leukemia cell line JVM-13. The experiment in a line: Antitumor effect - (4): JVM-13 subcutaneous xenograft. The note with it: JVM-13 xenograft; for TGI (%): Day 35, grouping Day 14, ADC (1) 0.3 mg/kg i.v. once, rituximab 10 mg/kg i.v. once, bendamustine 12.5 mg/kg i.p. day of grouping and next day, venetoclax 100 mg/kg oral every day, ibrutinib 200 mg/kg oral every day; for CR (%) on final day of observation / Change from baseline (%): ADC (1) 0.3 mg/kg i.v., rituximab 10 mg/kg i.v., bendamustine 12.5 mg/kg i.p. x2, venetoclax 100 mg/kg oral daily, ibrutinib 200 mg/kg oral daily; for Change from baseline (%): tumor volume on Day 35 vs Day 14 baseline.

SMILES strings stand for the structures. Where two headings read alike, the source gives them in different places.

As to `CC#CC(=O)N1CCC[C@H]1c1nc(-c2ccc(C(=O)Nc3ccccn3)cc2)c2c(N)nccn12` [Acalabrutinib, acalabrutinib], the IC50 in assay [1] (JVM-13, 6 days culture) came out at 7.15 µM; in assay [2] (144 h, JVM-2, 6 days culture), 25.8 µM; in assay [3] (144 h, JVM-3, 6 days culture), 16.6 µM.

Consider `C=CC(=O)N1CCC[C@@H](n2nc(-c3ccc(Oc4ccccc4)cc3)c3c(N)ncnc32)C1` [Ibrutinib, ibrutinib], for which, in assay [4], the “TGI (%)” value is -12%, the “CR (%) on final day of observation” value is on record as 0% and the “Change from baseline (%)” value is 776.7%. Also, in assay [1], the IC50 worked out at 0.58 µM. In addition, the IC50 in assay [2] (JVM-2, 144 h) was 1.19 µM. Further, the IC50 in assay [3] (JVM-3, 144 h) amounted to 0.27 µM.

With `CC1(C)CCC(CN2CCN(c3ccc(C(=O)NS(=O)(=O)c4ccc(NCC5CCOCC5)c([N+](=O)[O-])c4)c(Oc4cnc5[nH]ccc5c4)c3)CC2)=C(c2ccc(Cl)cc2)C1` [Venetoclax, venetoclax], in assay [4], the “TGI (%)” value turned out to be 25%, the “CR (%) on final day of observation” value is 0% and the “Change from baseline (%)” value was 490.9%.

With `C=CC(=O)N1CCC([C@@H]2CCNc3c(C(N)=O)c(-c4ccc(Oc5ccccc5)cc4)nn32)CC1` [Zanubrutinib, zanubrutinib], the IC50 in assay [1] (JVM-13, 6 days culture) was 2.83 µM; in assay [2] (144 h, JVM-2, 6 days culture) it was 6.86 µM; in assay [3] (144 h, JVM-3, 6 days culture), 17.9 µM.
